PubChem BioAssay (NCI)
Where “and” joins values, the source holds several entries; their conditions need not be identical. Identical values can stand only once.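 96-well plates; 48 h exposure; 5 concentrations. Endpoints by linear interpolation between flanking doses. Not reached: highest tested concentration assigned. GI50: concentration for 50% inhibition of growth. TGI: concentration producing complete growth inhibition.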

Experiments:
Assay in all cases: NCI anticancer screen, dose series, 48 h
BT-549 breast = tested on: BT-549 breast
DLD-1 colon = tested on: DLD-1 colon
DMS 114 small cell lung = tested on: DMS 114 small cell lung
DU-145 prostate = tested on: DU-145 prostate
HOP-18 NSCLC = tested on: HOP-18 NSCLC
M19-MEL melanoma = tested on: M19-MEL melanoma
MDA-N = tested on: MDA-N
XF 498 CNS = tested on: XF 498 CNS
RXF-631 renal = tested on: RXF-631 renal

Compound	GI50 (BT-549 breast)	TGI (BT-549 breast)	GI50 (DU-145 prostate)	TGI (DU-145 prostate)	other results
O=C(O)C(O)C(O)C1[O][Sb][O]C1CO (stereo not given)	> 100 µM	> 100 µM	> 100 µM	> 100 µM	GI50 (DLD-1 colon): > 100 µM; TGI (DLD-1 colon): > 100 µM; GI50 (DMS 114 small cell lung): > 43 µM; TGI (DMS 114 small cell lung): 98.3 µM; GI50 (HOP-18 NSCLC): > 100 µM; TGI (HOP-18 NSCLC): > 100 µM; GI50 (M19-MEL melanoma): 9.07 µM; TGI (M19-MEL melanoma): 31 µM; GI50 (MDA-N): > 100 µM; TGI (MDA-N): > 100 µM; GI50 (XF 498 CNS): > 100 µM; TGI (XF 498 CNS): > 100 µM
C1CCN2CC34CC(CC5CCCN(C6CCCC3N6)C54)C2C1 (stereo not given)		> 100 µM		> 100 µM	TGI (MDA-N): > 100 µM
NC(=O)c1ccc(-c2c3ccccc3cc3c2ccc2ccccc23)cc1			4.4 µM	26.2 µM	
C[C@H]1CC(=O)[C@@]2(O)C#C/C=C\C#C[C@@H]3Nc4c(cc(O)c5c4C(=O)c4ccccc4C5=O)[C@]24O[C@]314			0.0025 µM		TGI (MDA-N): 0.26 µM
COc1ccccc1OCC(COC(=O)Nc1ccc(C)cc1)OC(=O)Nc1ccc(C)cc1 (stereo not given)					TGI (DLD-1 colon): 31.8 µM; TGI (DMS 114 small cell lung): 29.3 µM; TGI (HOP-18 NSCLC): 40.3 µM; TGI (RXF-631 renal): 47.2 µM
C=C(C)[C@@H]1CC[C@]2(C#N)CC[C@]3(C)[C@H](CC[C@@H]4[C@@]5(C)CCCNC(C)(C)[C@@H]5CC[C@]43C)[C@@H]12	1.75 µM	3.42 µM	1.85 µM	3.48 µM	
O=C(Nc1ccc(-c2nc3ccc(NC(=O)c4ccc(Cl)cc4)cc3[nH]2)cc1)c1ccc(Cl)cc1	6.56 µM	20.7 µM	2.43 µM	7.16 µM	
CCN(CC)c1ccc(/C=N\NC(=O)c2cccc(Nc3ccnc(C(F)(F)F)c3)c2)c(O)c1	0.427 µM	> 65.1 µM	0.159 µM	> 100 µM	
N#CC(C#N)=C/C=C/c1cccc([N+](=O)[O-])c1			1.05 µM	12.8 µM	
CC(C)=CCC[C@](C)(O)[C@H]1CC[C@]2(C)[C@@H]1CC[C@@H]1[C@@]3(C)CC[C@H](OC(=O)CCC(=O)O)C(C)(C)[C@@H]3CC[C@]12C	> 100 µM	> 100 µM	27.5 µM	> 100 µM	
CN1C=CN(Cc2ccc(-c3ccccn3)nc2)[CH-]1.CN1C=CN(Cc2ccc(-c3ccccn3)nc2)[CH-]1.[Au+3]	2.46 µM	20.1 µM	4.16 µM	36.8 µM	
C=C1C(=O)C23C(CC(OC(C)=O)C1[C@@H]2OC(C)=O)C1(C)C(OC(C)=O)CCC(C)(C)C1C[C@@H]3OC(C)=O (stereo not given in full)					TGI (DMS 114 small cell lung): 2.4 µM; TGI (M19-MEL melanoma): 3.16 µM
COc1cc(Nc2ncc(-c3ccccc3)o2)cc(OC)c1OC	3.24 µM	> 25 µM	5.98 µM	> 25 µM	
Cc1cc(I)cc(CN(C)CCCCN2CCCC2)c1O	13.6 µM	33.5 µM	35.8 µM	> 100 µM	
COC(=N)/C(=C1\OC(N)=C(c2ccc(Cl)cc2)C1=O)c1ccc(Cl)cc1					TGI (DLD-1 colon): > 100 µM; TGI (DMS 114 small cell lung): > 100 µM; TGI (HOP-18 NSCLC): > 100 µM; TGI (M19-MEL melanoma): > 100 µM; TGI (XF 498 CNS): > 100 µM
C[P+](C)(CC(F)(F)F)c1ccccc1					TGI (DLD-1 colon): > 100 µM; TGI (DMS 114 small cell lung): > 100 µM; TGI (HOP-18 NSCLC): > 100 µM; TGI (M19-MEL melanoma): > 100 µM
C=C1C(=O)O[C@H]2[C@H](OC(C)=O)[C@@H](C)CCC/C(C)=C/CC[C@]3(CO3)[C@H](O)C[C@@H]12	3.77 µM	15.4 µM	2.56 µM	10.2 µM	

Compound	GI50 (BT-549 breast)	TGI (BT-549 breast)	GI50 (DU-145 prostate)	TGI (DU-145 prostate)	other results
CCCC/C(C)=N/NC(N)=S					TGI (DLD-1 colon): > 100 µM; TGI (DMS 114 small cell lung): > 100 µM; TGI (HOP-18 NSCLC): > 100 µM; TGI (M19-MEL melanoma): > 100 µM
Fc1cc(Nc2ccc3c(OCCCN4CCOCC4)cccc3n2)ccc1Cl	5.16 µM	18.7 µM	3.62 µM	13.1 µM	
Cc1cc(C#Cc2ccccc2)ccc1-n1c(/C=C/c2ccc(O)cc2)nc2ccccc2c1=O			4.87 µM	> 100 µM	
O=C(O)c1c(Cl)c(Cl)c(Cl)c(Cl)c1-c1c2cc(I)c(=O)c(I)c-2oc2c(I)c(O)c(I)cc12	26.9 µM and 35.9 µM	82.6 µM and 83.2 µM	37.2 µM	94.3 µM	
COCCOC(=O)CCn1cc(F)c(=O)[nH]c1=O	16.2 µg/mL	> 150 µg/mL	5.57 µg/mL	> 150 µg/mL	GI50 (MDA-N): 2.29 µg/mL; TGI (MDA-N): > 150 µg/mL
CCOc1ccc(N2C(N)=NC(N)=NC2(C)C)cc1	84.3 µM	> 100 µM	71.9 µM	> 100 µM	
COc1cc(C=NCC(=O)CSC(c2ccccc2)c2ccccc2)cc(OC)c1OC	26.5 µM	93.9 µM	40.8 µM	> 100 µM	
NC(=NC1C2CC3CC(C2)CC1C3)Nc1ccc(I)cc1 (stereo not given)	3.33 µM	12.8 µM	3.66 µM	12.6 µM	
O=c1c2c(=NCCCN3CCCC3)cc3c(=O)n(CCCN4CCCC4)c(=O)c4c(NCCCN5CCCC5)cc(c(O)n1CCCN1CCCC1)c2c4-3	14.1 µM	36.1 µM	2.96 µM	7.79 µM	
CCOC(=O)c1cc2cc([N+](=O)[O-])ccc2oc1=O		> 100 µM		> 100 µM	TGI (MDA-N): > 100 µM
CC(Cl)CC(=O)Nc1ccc2c(c1)oc(=O)c1cc(NC(=O)CC(C)Cl)ccc12 (stereo not given)	22.1 µM	53.3 µM	15.1 µM	34.1 µM	
COc1cc([N+](=O)[O-])c2ncccc2c1O	21.2 µM	87.3 µM	2.32 µM	5.73 µM	
COc1cc(SC)ccc1C(=O)N1CCCC(C)C1 (stereo not given)	> 100 µM	> 100 µM	> 100 µM	> 100 µM	
CCn1c(-c2cc3ccccc3cc2OC(=O)c2ccccc2)n[nH]c1=S	34 µM	> 50 µM	> 50 µM	> 50 µM	
Cc1ccc(NC(=O)CCC(=O)C(C#N)c2ccc(Cl)cc2)cc1C (stereo not given)					TGI (DLD-1 colon): > 100 µM; TGI (DMS 114 small cell lung): > 100 µM; TGI (HOP-18 NSCLC): > 100 µM; TGI (M19-MEL melanoma): > 100 µM; TGI (XF 498 CNS): > 100 µM
COCCn1cc(-c2csc(-c3c[nH]c4ccc(F)cc34)n2)c2cccnc21	4.26 µM	> 100 µM	18.8 µM	> 100 µM	
COc1cc(C(N)=O)c(OC)c(OC)c1OC					TGI (DLD-1 colon): > 100 µM; TGI (DMS 114 small cell lung): > 100 µM; TGI (M19-MEL melanoma): > 100 µM; TGI (RXF-631 renal): > 100 µM
